Key:
Experiment in all cases: combination Emax (second highest fraction inhibited in the dose matrix, 72 h); higher = more inhibition; extreme values may be limits of the assay
[1] = tested on: MDA-MB-453 (Breast Carcinoma)
Method in brief: (§1)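 After 24 hours at 37°C and 5% CO2 in 1536-well plates, cells in DMEM/F12 or RPMI plus 10% FBS received two-drug dose matrices for 72 hours. Viability came from CellTiter-Glo 2.0 luminescence and was scaled as inhibition, anchored at 0 by vehicle wells and at 1 by blank wells. Combination Emax is taken as the second-highest inhibition in the matrix, and Bliss excess as the observed combination effect less EA + EB − EA·EB, with EA and EB the single-agent effects.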

[2] = tested on: ME-180 (Cervical Carcinoma)
Method in brief: as §1

[3] = tested on: COLO-668 (Small Cell Lung Carcinoma)
Method in brief: as §1

[4] = tested on: MV-4-11 (Acute Myeloid Leukemia)
Method in brief: as §1

[5] = tested on: NCI-H1355 (Lung Adenocarcinoma)
Method in brief: as §1

[6] = tested on: MOLT-4 (T-Lymphoblastic Leukemia)
Method in brief: as §1

[7] = tested on: SNU-387 (Hepatocellular Carcinoma)
Method in brief: as §1

[8] = tested on: MOG-G-UVW (Low Grade Glioma)
Method in brief: as §1

[9] = tested on: A4-Fuk (B-Lymphoblastic Leukemia)
Method in brief: as §1

[10] = tested on: SW872 (Other Solid Carcinomas)
Method in brief: as §1

COLO-679 (Melanoma) = tested on: COLO-679 (Melanoma)
Method in brief: as §1

[11] = tested on: SKN (Other Solid Carcinomas)
Method in brief: as §1

[12] = tested on: KMRC-1 (Kidney Carcinoma)
Method in brief: as §1

[13] = tested on: HAL-01 (B-Lymphoblastic Leukemia)
Method in brief: as §1

[14] = tested on: NCI-H522 (Lung Adenocarcinoma)
Method in brief: as §1

[15] = tested on: OE33 (Esophageal Adenocarcinoma)
Method in brief: as §1

[16] = tested on: EFO-21 (Ovarian Carcinoma)
Method in brief: as §1

[17] = tested on: SW982 (Other Solid Carcinomas)
Method in brief: as §1

[18] = tested on: Mo-T (Other Blood Carcinomas)
Method in brief: as §1

[19] = tested on: KGN (Other Solid Carcinomas)
Method in brief: as §1

| SMILES | combination Emax [1] | combination Emax [2] | combination Emax [3] | combination Emax [4] | combination Emax [5] | combination Emax [6] | combination Emax [7] | combination Emax [8] | combination Emax [9] | combination Emax [10] | combination Emax (COLO-679 (Melanoma)) | combination Emax [11] | combination Emax [12] | combination Emax [13] | combination Emax [14] | combination Emax [15] | combination Emax [16] | combination Emax [17] | combination Emax [18] | combination Emax [19] |
| --- | --- | --- | --- | --- | --- | --- | --- | --- | --- | --- | --- | --- | --- | --- | --- | --- | --- | --- | --- | --- |
| CN(CCO)CC[C@H](CSc1ccccc1)Nc1ccc(S(=O)(=O)NC(=O)c2ccc(N3CCC([C@@H](O)c4ccccc4-c4ccc(Cl)cc4)CC3)cc2)cc1S(=O)(=O)C(F)(F)F [AZD4320] + Nc1ccn([C@@H]2O[C@H](CO)[C@@H](O)C2(F)F)c(=O)n1 [Gemcitabine] (first compound max 1 µM, 7x7, partner max 0.3 µM) | 0.731 | 0.878 | 0.966 | 1 | 0.406 | 1 | 0.218 | 0.821 | 0.914 | 0.929 | 0.851 | 0.783 | 0.902 | 1 | 0.224 | 0.586 | 0.473 | 1 | 0.997 |  |
| Cc1cc2ncnn2cc1Nc1ncc2c(n1)n(C1CCOCC1)c(=O)n2C [AZD7648] + C=CCn1c(=O)c2cnc(Nc3ccc(N4CCN(C)CC4)cc3)nc2n1-c1cccc(C(C)(C)O)n1 [AZD1775] (first compound max 10 µM, partner max 1 µM) | 0.347 | 0.529 | 0.568 | 0.954 | 0.672 | 1 | 0.383 | 0.779 | 0.861 | 0.384 | 0.46 | 0.38 | 0.307 | 0.914 | 0.373 | 0.537 | 0.511 | 0.825 | 0.52 | 0.833 |
| CN(CCO)CC[C@H](CSc1ccccc1)Nc1ccc(S(=O)(=O)NC(=O)c2ccc(N3CCC([C@@H](O)c4ccccc4-c4ccc(Cl)cc4)CC3)cc2)cc1S(=O)(=O)C(F)(F)F [AZD4320] + Cc1cc2ncnn2cc1Nc1ncc2c(n1)n(C1CCOCC1)c(=O)n2C [AZD7648] (first compound max 1 µM, 7x7, partner max 10 µM) | 0.285 | 0.26 | 0.867 | 1 | 0.269 | 0.98 | 0.178 | 0.191 | 0.619 | 0.113 | 0.142 | 0.15 | 0.222 | 0.882 | 0.0447 | 0.222 | 0.224 | 0.371 | 0.578 | 0.437 |
| Cc1cc2ncnn2cc1Nc1ncc2c(n1)n(C1CCOCC1)c(=O)n2C [AZD7648] + CN(C)CCCOc1ccc(-c2ccc3ncc4c(c3c2)n(C2CCOCC2)c(=O)n4C)cn1 [AZD0156] (first compound max 10 µM, 7x7, partner max 1 µM) | 0.325 | 0.326 | 0.133 | 0.484 | 0.482 | 0.246 | 0.275 | 0.379 | 0.575 | 0.264 | 0.2 | 0.264 | 0.24 | 0.398 | 0.164 | 0.256 | 0.332 | 0.36 | 0.3 | 0.661 |
| Cc1cc2ncnn2cc1Nc1ncc2c(n1)n(C1CCOCC1)c(=O)n2C [AZD7648] + O=C(c1cc(Cc2n[nH]c(=O)c3ccccc23)ccc1F)N1CCN(C(=O)C2CC2)CC1 [Olaparib] (first compound max 10 µM, 7x7, partner max 10 µM) | 0.281 | 0.154 | 0.144 | 0.446 | 0.297 | 0.233 | 0.259 | 0.316 | 0.428 | 0.11 | 0.128 | 0.131 | 0.184 | 0.472 | 0.17 | 0.218 | 0.264 | 0.503 | 0.382 | 0.601 |
| Cc1c2c(nn1C)CSCc1cc(n(C)n1)CSc1cc(c3ccccc3c1)OCCCc1c(C(=O)O)n(C)c3c-2c(Cl)ccc13 [AZD5991] + Cn1cnc2c(F)c(Nc3ccc(Br)cc3Cl)c(C(=O)NOCCO)cc21 [Selumetinib] (first compound max 1 µM, 7x7, partner max 3 µM) | 0.289 | 0.26 | 0.666 | 1 | 0.316 | 0.339 | 0.619 | 0.302 | 1 | 0.288 | 0.832 |  | 0.197 | 0.624 | 0.409 | 0.19 | 0.36 | 0.377 | 0.296 | 0.299 |
| CN(CCO)CC[C@H](CSc1ccccc1)Nc1ccc(S(=O)(=O)NC(=O)c2ccc(N3CCC([C@@H](O)c4ccccc4-c4ccc(Cl)cc4)CC3)cc2)cc1S(=O)(=O)C(F)(F)F [AZD4320] + C[C@@H]1COCCN1C2=NC(=NC(=C2)C3(CC3)[S@](=N)(=O)C)C4=C5C=CNC5=NC=C4 [AZD6738] (first compound max 1 µM, 7x7, partner max 10 µM) | 0.803 | 0.564 | 0.983 | 1 | 0.77 | 1 | 0.541 | 0.794 | 0.715 | 0.624 | 0.771 | 0.663 | 0.656 | 1 | 0.156 | 0.843 | 0.433 | 0.886 | 0.937 | 0.874 |
| Cc1cc2ncnn2cc1Nc1ncc2c(n1)n(C1CCOCC1)c(=O)n2C [AZD7648] + COc1cc([C@@H]2c3cc4c(cc3[C@@H](O[C@@H]3O[C@@H]5CO[C@@H](C)O[C@H]5[C@H](O)[C@H]3O)[C@H]3COC(=O)[C@H]23)OCO4)cc(OC)c1O [Etoposide] (first compound max 10 µM, 7x7, partner max 10 µM) | 0.497 | 0.941 | 0.862 | 1 | 0.535 | 1 | 0.22 | 0.9 | 0.937 | 0.817 | 0.588 | 0.784 | 0.478 | 1 | 0.339 | 0.504 | 0.438 | 0.861 | 0.909 | 0.863 |
| C[C@@H](c1ccc2nccn2c1)n1nnc2ncc(-c3cnn(C)c3)nc21 [Savolitinib] + Cc1c2c(nn1C)CSCc1cc(n(C)n1)CSc1cc(c3ccccc3c1)OCCCc1c(C(=O)O)n(C)c3c-2c(Cl)ccc13 [AZD5991] (first compound max 1 µM, 7x7, partner max 1 µM) | 0.261 | 0.114 | 0.257 | 1 | 0.207 | 0.491 | 0.342 | 0.343 | 1 | 0.201 | 0.163 | 0.219 | 0.209 | 0.291 | 0.281 | 0.328 | 0.163 | 0.119 | 0.129 | 0.303 |
| CN(CCO)CC[C@H](CSc1ccccc1)Nc1ccc(S(=O)(=O)NC(=O)c2ccc(N3CCC([C@@H](O)c4ccccc4-c4ccc(Cl)cc4)CC3)cc2)cc1S(=O)(=O)C(F)(F)F [AZD4320] + C1CN(CCC1(C(=O)N[C@@H](CCO)C2=CC=C(C=C2)Cl)N)C3=NC=NC4=C3C=CN4 [Capivasertib] (first compound max 1 µM, 7x7, partner max 3 µM) | 0.596 | 0.507 |  | 1 | 0.239 | 1 | 0.213 | 0.355 | 0.683 | 0.166 | 0.0975 | 0.401 | 0.51 | 0.761 | 0.049 | 0.0577 | 0.168 | 0.278 | 0.697 | 0.323 |
| CN(CCO)CC[C@H](CSc1ccccc1)Nc1ccc(S(=O)(=O)NC(=O)c2ccc(N3CCC([C@@H](O)c4ccccc4-c4ccc(Cl)cc4)CC3)cc2)cc1S(=O)(=O)C(F)(F)F [AZD4320] + CCN(CCO)CCCOc1ccc2c(Nc3cc(CC(=O)Nc4cccc(F)c4)[nH]n3)ncnc2c1 [AZD2811] (first compound max 1 µM, 7x7, partner max 1 µM) | 0.324 | 0.624 | 0.915 | 1 | 0.239 | 1 | 0.227 | 0.509 | 0.417 | 0.142 | 0.275 | 0.613 | 0.144 | 0.835 | 0.105 | 0.0773 | 0.196 | 0.814 | 0.768 | 0.497 |
| N#Cc1cnc(Nc2cc(NC[C@H]3CNCCO3)c(C(F)(F)F)cn2)cn1 [SRA737] + O=c1[nH]cc(F)c(=O)[nH]1 [5-Fluorouracil] (first compound max 10 µM, 7x7, partner max 20 µM) | 0.534 | 0.564 | 0.483 | 0.967 | 0.517 | 1 | 0.364 | 0.558 | 0.905 |  | 0.7 | 0.361 | 0.543 | 1 | 0.0376 | 0.721 | 0.313 | 0.679 | 0.544 | 0.572 |

Reference: the supplement of paper PMC11061612
